Data on three molecules can be found in patent publication US7432306B2, “Method for preparing novel transcription factors and use” (NRL Pharma, Inc., priority 2005, dated 2008).

The conditions of data set [1]: cited from earlier work.
The conditions of data set [2]: cited from earlier work. The source holds these as a separate data set.
Data set [3] deals with Ehrlich ascites carcinoma. In words: Inhibition of Ehrlich solid tumor. As to conditions: 7 days, 21st day. The data set is classed as in vivo, mouse. Here is the method: Eighteen five-week-old ICR male mice were subcutaneously inoculated with 10^6 cells of Ehrlich ascites carcinoma […] and after 24 hours, and the mice were classified into three groups of six mice, and 4-O-methylascochlorin diethylacetal (MAC-DE) was suspended in 0.2% Tween-80 and 1 mg/kg and 4 mg/kg were orally administered to the first group and the second group twice a day at 9:00 and 20:00, respectively, and a MAC-DE-free Tween-80 aqueous solution was given to the third group as a control group. The administration was continued for successive 7 days and after completion of the administration, the mice were fed for two weeks. On the 21st day, a nodular tumor was removed from the mice and the body weight was determined and the effect of MAC-DE on the inhibition of tumor growth was examined.

In data set [4] the test system is ICR male mice. Briefly: Fat accumulation in ICR mice fed 13 weeks. In kind it is in vivo, mouse. As to conditions: liver and epididymal adipose tissue. The source says:
Thirty 5-week-old ICR male mice were randomly classified into three group of ten mice, and mouse standard diet CE-2 (a product of Japan CLEA Co., Ltd.) was given to the first group, and diet CE-2 containing 0.1% of 4-O-methylascochlorin diethylacetal (MAC-DE) was given to the second group and diet CE-2 containing 0.05% of MAC-DE was given to the third group and the mice were continued to be fed. […] After 13 weeks, the liver and the epididymal adipose tissue were removed from the mice and lipid was extracted by the Folch method and the triglyceride content was determined. As a result, the triglyceride content in the 0.05% MAC-DE group was reduced 27%, and the triglyceride content in the 0.1% MAC-DE group was reduced 35%. From this fact it would be understood that MAC-DE inhibits fat accumulation.

In a further data set the test system is ddY male mice. In words: Internal fat accumulation in ddY mice fed 13 weeks. The data set is classed as in vivo, mouse. Conditions: livers and epididymal adipose tissues. An excerpt: Thirty 5-week-old ddY male mice were randomly classified into three groups of ten mice and fed for 13 weeks by allowing feed and water ad libidum. Meanwhile, the mouse standard diet CE-2 (a product of Japan CLEA Co., Ltd.) was given to the first group, and diet CE-2 containing 0.1% of 4-O-methylascochlorin diethylacetal (MAC-DE) was given to the second group of mice and diet CE-2 containing 0.05% of MAC-DE was given to the third group. […] After 13 weeks, the livers and the epididymal adipose tissues were removed from the mice and lipid was extracted by the Folch method and the triglyceride content was determined. As a result, the triglyceride content in the 0.05% MAC-DE group was reduced 27%, and the neutral fat content in the 0.1% MAC-DE group was reduced 35%. From this fact it would be understood that MAC-DE inhibits internal fat accumulation.

Data set [5] relates to ICR male mice. In words: Syngeneic Langerhans islet transplanted streptozotocin diabetic mouse. The data set is classed as in vivo. Here is the method: Thirty 5-week-old ICR male mice were randomly classified into six groups and all mice were fed for one week by allowing mouse standard diet CE-2 (a product of Japan CLEA Co., Ltd.). Then, the mice in the first to third groups were intravenously injected with 50 mg/kg of streptozotocin and after one week, blood was collected from the orbit and the blood sugar and the serum insulin were determined to confirm the onset of insulin-dependent diabetes. Ten days after the streptozotocin injection, pancreatic Langerhans islets were removed from the age-matched normal mice in the fourth to sixth groups and 20 pancreatic Langerhans islets were subcutaneously transplanted in the back of each of the diabetic mice. Immediately after transplantation, diet CE-2 containing 0.1% of MAC-DE was given to the first group, diet CE-2 containing 0.05% of MAC-DE was given to the second group and CE-2 was given to the third group. The diabetic mice were further fed for 60 days, and blood was collected from the orbit and the blood sugar and the serum insulin were determined every 15 days.

The subject of the next data set is db/db mice. In words: Action of MAC-DEA on db/db mouse. In kind it is in vivo. Conditions: for Blood Sugar / Serum Insulin / Serum Neutral Fat: db/db mice. Here is the method: Eighteen 7-week-old male db/db mice were bred for one week by allowing mouse standard feed and water ad libitum. The mice were randomly classified into three groups of six mice and each group was housed in a urine collection rat cage and the intake of feed, the amount of drinking water, the amount of urine and the amount of urine sugar excreted were determined everyday. Feed CE-2 was given to the first group as a control group, and feed CE-2 mixed with 0.05% of 4-O-methylascochlorin diethylacetal (MAC-DEA) and feed CE-2 mixed with 0.1% of MAC-DEA were given to the second group and the third group, respectively. The mice were allowed feed and drinking water ad libitum and on the 7th day, blood was collected and the blood sugar, the serum neutral fat and the serum insulin were determined.

Data set [6] concerns ICR male mice. Briefly: Mouse serum cholesterol lowering action. As to conditions: one week; for Total Cholesterol in Serum: ICR mice; for Rate of Change (total cholesterol in serum): vs control. The data set is classed as in vivo. Here is the method: Thirty 5-week-old ICR male mice were bred by allowing mouse standard feed and water ad libitum. The mice were randomly classified into three groups, and one group was taken as a control group to which no drug was administered, and feed containing 0.1% of 4-O-methylasco-chlorin diethylacetal (MAC-DEA) and feed containing 0.05% of MAC-DEA were given to the other two groups, respectively. The body weight, the intake of feed and the amount of drinking water were measured every other day. One week after giving feed, blood was collected and the total cholesterol in serum and the neutral fat were determined.

The test system of another data set is C57BL ksj (db/db). Conditions: hereditary obese diabetic mouse C57BL ksj (db/db); cited from earlier work.

Take `COc1c(Cl)c(C)c(C=O)c(O)c1C/C=C(C)/C=C/[C@@]1(C)[C@H](C)CCC(=O)[C@@H]1C` [MAC, 4-O-Methylascochlorin]: the bioavailability entry in data set [1] (oral, animals) is reported as “very poor bioavailability”. Further, the solubility in water entry in [2] is on record as “less than 0.7 μg/ml”.
Consider `CCOC(OCC)c1c(C)c(Cl)c(OC)c(C/C=C(C)/C=C/[C@@]2(C)[C@H](C)CCC(=O)[C@@H]2C)c1O` [MAC-DEA, 4-O-methylascochlorin diethylacetal], for which the “Inhibition Ratio (tumor)” value in [3] (1 mg/kg oral twice a day) came out at 81%; in data set [3] (4 mg/kg oral twice a day), 96%. For the same molecule, the “Weight of Tumor” value in data set [3] (1 mg/kg oral twice a day) is reported as 0.25 g/mouse; in [3] (4 mg/kg oral twice a day) it was 0.06 g/mouse. Besides, the figures for the “triglyceride content, reduction” value in the data set on ICR male mice [4] (0.05% in diet), with ICR male mice [4] (0.1% in diet) and with ddY male mice (0.05% in diet) were 27%, 35% and 27%, respectively. Also, the “neutral fat content, reduction” value in the data set on ddY male mice (0.1% in diet) turned out to be 35%. Besides, the “Blood Sugar” value stood at 566 mg/dL with ICR male mice [5] (0.05% in diet CE-2, Day 0); 143 mg/dL in the data set on ICR male mice [5] (0.05% in diet CE-2, Day 15); 148 mg/dL with ICR male mice [5] (0.05% in diet CE-2, Day 30); 125 mg/dL in the data set with ICR male mice [5] (0.05% in diet CE-2, Day 45); 118 mg/dL in the data set with ICR male mice [5] (0.05% in diet CE-2, Day 60); 583 mg/dL in the data set on ICR male mice [5] (0.1% in diet CE-2, Day 0). Also, the “Blood Sugar” value in the data set with ICR male mice [5] (0.1% in diet CE-2, Day 15) amounted to 121 mg/dL; in the data set with ICR male mice [5] (0.1% in diet CE-2, Day 30), 118 mg/dL; in the data set with ICR male mice [5] (0.1% in diet CE-2, Day 45), 119 mg/dL; with ICR male mice [5] (0.1% in diet CE-2, Day 60), 131 mg/dL; in the data set with db/db mice (0.05% in feed CE-2, 7th day), 273 mg/dL; in the data set on db/db mice (0.1% in feed CE-2, 7th day), 239 mg/dL. The Insulin in the data set with ICR male mice [5] (0.05% in diet CE-2, Day 0) is reported as <2 ·U/ml; with ICR male mice [5] (0.05% in diet CE-2, Day 15), 5 ·U/ml; in the data set on ICR male mice [5] (0.05% in diet CE-2, Day 30) it was 5 ·U/ml; with ICR male mice [5] (0.05% in diet CE-2, Day 45), 6 ·U/ml; in the data set on ICR male mice [5] (0.05% in diet CE-2, Day 60) it was 6 ·U/ml; in the data set with ICR male mice [5] (0.1% in diet CE-2, Day 0), <2 ·U/ml. Moreover, the Insulin in the data set on ICR male mice [5] (0.1% in diet CE-2, Day 15) is reported as 5 ·U/ml; with ICR male mice [5] (0.1% in diet CE-2, Day 30), 6 ·U/ml; in the data set with ICR male mice [5] (0.1% in diet CE-2, Day 45) it was 6 ·U/ml; with ICR male mice [5] (0.1% in diet CE-2, Day 60), 6 ·U/ml. In addition, the “Serum Insulin” value in the data set with db/db mice (0.05% in feed CE-2, 7th day) was 175 ·U/ml; with db/db mice (0.1% in feed CE-2, 7th day) it was 132 ·U/ml. Also, the “Serum Neutral Fat” value in the data set with db/db mice (0.05% in feed CE-2, 7th day) amounted to 259 mg/dL; in the data set on db/db mice (0.1% in feed CE-2, 7th day) it was 248 mg/dL. For the same molecule, the “Amount of Drinking Water” value in the data set with db/db mice (0.05% in feed CE-2, db/db mice) was 5.4 ml/mouse; with db/db mice (0.1% in feed CE-2, db/db mice), 3.2 ml/mouse. For the same molecule, the “Amount of Urine” value in the data set on db/db mice (0.05% in feed CE-2, db/db mice) was found to be 2.5 ml/mouse; with db/db mice (0.1% in feed CE-2, db/db mice), 1.7 ml/mouse. Further, the “Amount of Urine Sugar Excreted” value in the data set with db/db mice (0.05% in feed CE-2, db/db mice) was 47 mg/dL; with db/db mice (0.1% in feed CE-2, db/db mice), 10 mg/dL. In addition, the “Total Cholesterol in Serum” value is 97 mg/dL in the data set on ICR male mice [6] (0.05% in feed) and 90 mg/dL in the data set on ICR male mice [6] (0.1% in feed). The “Rate of Change (total cholesterol in serum)” value in the data set on ICR male mice [6] (0.05% in feed) is recorded as −17.8%; in the data set on ICR male mice [6] (0.1% in feed), −23.7%.
On to `CC(C=CC1(C)C(C)CCC(=O)C1C)=CCc1c(O)c(C=O)c(C)c(Cl)c1OCC(=O)O` (centres unmarked) [AS-6, 4-O-carboxymethylasco-chlorin], for which the “toxicity to the liver” value in data set [1] (oral, blood concentration quickly rises) is reported as “the toxicity to the liver is easily exhibited”. The excretion entry in [1] (orally administered to an animal) was “quickly excreted”. Also, in data set [2] (pH of 7.2 to 7.7 in the small intestine), the “soluble in water at a concentration” value is reported as at least 6%. In the data set with C57BL ksj (db/db), the carbohydrate metabolism entry is given as “improves in the carbohydrate metabolism”.
